Results: ChEMBL document CHEMBL1149890, “Brianodins A-D, briarane-type diterpenoids from soft coral Pachyclavularia sp” (J Nat Prod, 2008)
In brackets after ≈: the same amount, converted by molar mass.

Columns and labels:
KB = assay: Cytotoxicity against human KB cells; type: functional, cell-based
L1210 = assay: Cytotoxicity against mouse L1210 cells; type: functional, cell-based

Row | Structure (SMILES) | IC50 (KB) | IC50 (L1210)
1 | CC(=O)O[C@@H]1[C@H](O)[C@@H](OC(C)=O)/C(C)=C\[C@@H]2OC(=O)[C@@](C)(O)[C@@]2(O)[C@@H](OC(C)=O)[C@H]2[C@](C)(O)[C@H](O)C=C[C@]12C [BRIANODIN C] | > 10 mg/L | –
2 | CC(=O)O[C@@H]1C/C(C)=C\[C@@H]2OC(=O)[C@]3(C)O[C@]23[C@@H](OC(C)=O)[C@H]2[C@](C)(O)[C@H](OC(C)=O)C=C[C@]2(C)[C@@H]1O [BRIANODIN A] | 4.3 mg/L (≈ 8.23 µM) | 1.8 mg/L (≈ 3.44 µM)
3 | CC(=O)O[C@@H]1[C@H](O)[C@@H](OC(C)=O)/C(C)=C\[C@@H]2OC(=O)[C@@](C)(O)[C@@]2(O)[C@@H](OC(C)=O)[C@H]2[C@](C)(O)[C@H](OC(C)=O)C=C[C@]12C [BRIANODIN B] | > 10 mg/L | –
4 | CC(=O)O[C@@H]1C/C(C)=C\[C@@H]2OC(=O)[C@@](C)(O)[C@@]2(O)[C@@H](OC(C)=O)[C@H]2[C@](C)(O)[C@H](O)C=C[C@]2(C)[C@@H]1O [BRIANODIN D] | > 10 mg/L | –
